The values below come from patent US20120156314A1, “11 beta, 13-DIHYDROHELENALIN DERIVATIVES AND USES THEREOF AS BOMBESIN RECEPTOR SUBTYPE 3 AGNOISTS” (VIOGENE-BIOTEK CORPORATION, priority 2010, published 2012).

Structures are written as SMILES. Like-named read-outs stand apart in the source and are kept apart here.

In assay [1] the target is T1, human BRS3 (Homo sapiens, UniProt P32247).
T1 construct: expressed in transfected cells; host or cells: U2OS
T1 sequence (P32247 1-399): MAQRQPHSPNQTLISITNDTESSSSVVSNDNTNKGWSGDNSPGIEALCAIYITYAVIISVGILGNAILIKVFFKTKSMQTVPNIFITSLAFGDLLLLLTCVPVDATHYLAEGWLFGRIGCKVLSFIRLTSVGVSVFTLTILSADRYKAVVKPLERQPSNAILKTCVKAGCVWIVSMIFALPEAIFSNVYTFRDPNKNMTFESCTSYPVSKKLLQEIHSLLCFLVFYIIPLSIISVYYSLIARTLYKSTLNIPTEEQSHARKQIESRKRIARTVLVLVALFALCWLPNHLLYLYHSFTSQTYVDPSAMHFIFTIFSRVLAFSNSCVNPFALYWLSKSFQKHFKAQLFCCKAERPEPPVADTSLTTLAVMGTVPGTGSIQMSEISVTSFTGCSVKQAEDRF
Put plainly: Cytosolic Ca++ mobilization assay in U2OS cells expressing BRS3. Type of assay: cell-based. The note with it: for magnitude of released calcium and time to reach the peak of the transient: dose response. On the procedure:
Fluorescence was measured at dual excitation wavelengths of 340 nm and 380 nm, using an emission wavelength of 510 nm. Autofluorescence was corrected for by running a sample of unlabeled cells in identical experimental conditions.

Assay [2] concerns the target BRS3 (Homo sapiens, UniProt P32247). The experiment in a line: cell-based.
Source text: Formation of the arrestin-receptor complex occurred as the agonist bind to the receptor and it is able to trace the translocation of this complex from plasma membrane to cytoplasm in a form of endocytoplamic vesicles. Monitoring the distribution and translocation of GFP-labeled arrestin in cell expressing BRS3, we are able to measure the ability of the crude extracts to activate BRS3.
Assay [3] relates to U2OS cells that does not express BRS3. The method, then: After two washes with assay buffer, 2 ml of cell suspension were placed in a Delta PTI Scan 1 spectrofluorimeter (Photon Technology International, South Brunswick, N.J.) equipped with a stir bar and water bath (37° C.). Fluorescence was measured at dual excitation wavelengths of 340 nm and 380 nm, using an emission wavelength of 510 nm. Autofluorescence was corrected for by running a sample of unlabeled cells in identical experimental conditions.

Assay [4] addresses GRPR (Homo sapiens, UniProt P30550). The experiment in a line: cell-based. The note with it: Table 6.
Assay [5] has as its target NMBR (Homo sapiens, UniProt P28336). The experiment in a line: cell-based. The note with it: Table 6.
The mark [6] stands for this setting: Table 5, U2OS cells expressing human BRS3, read-out: EC50 Ca++.

Sequence of NMBR (P28336 whole entry, species assumed): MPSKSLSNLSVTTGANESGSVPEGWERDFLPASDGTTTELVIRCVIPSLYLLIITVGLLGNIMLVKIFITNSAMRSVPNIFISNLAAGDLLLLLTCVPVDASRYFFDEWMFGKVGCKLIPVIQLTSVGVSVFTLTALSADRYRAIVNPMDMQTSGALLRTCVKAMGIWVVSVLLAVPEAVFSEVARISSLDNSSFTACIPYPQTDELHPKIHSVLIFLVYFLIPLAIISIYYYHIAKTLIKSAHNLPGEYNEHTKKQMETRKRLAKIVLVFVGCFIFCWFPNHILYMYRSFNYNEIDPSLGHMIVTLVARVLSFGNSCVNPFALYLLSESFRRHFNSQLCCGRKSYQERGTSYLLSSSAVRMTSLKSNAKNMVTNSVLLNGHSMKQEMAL
Sequence of GRPR (P30550 whole entry, species assumed): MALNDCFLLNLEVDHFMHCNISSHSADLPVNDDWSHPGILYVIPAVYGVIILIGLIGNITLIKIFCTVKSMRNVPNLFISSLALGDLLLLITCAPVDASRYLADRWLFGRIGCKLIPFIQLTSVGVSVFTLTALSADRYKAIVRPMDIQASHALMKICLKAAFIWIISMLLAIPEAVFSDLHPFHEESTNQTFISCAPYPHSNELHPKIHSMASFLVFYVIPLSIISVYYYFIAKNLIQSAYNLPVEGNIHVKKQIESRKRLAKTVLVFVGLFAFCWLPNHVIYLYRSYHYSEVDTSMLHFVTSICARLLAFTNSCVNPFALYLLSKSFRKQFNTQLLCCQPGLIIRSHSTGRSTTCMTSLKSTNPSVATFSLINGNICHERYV

Take `C=C(C)C(=O)O[C@H]1[C@H]2[C@@H](C[C@@H](C)[C@@H]3C=CC(=O)[C@]31C)OC(=O)[C@@H]2C` [Compound 1, Arnicolide D]: the EC50 (in general, the midpoint of the concentration-response curve) came to 10 µM in assay [1] and 2800 nM in assay [2] (EC50 Arrestin, Table 5).

In the case of `CC(C)C(=O)O[C@H]1[C@H]2[C@@H](C[C@@H](C)[C@@H]3C=CC(=O)[C@]31C)OC(=O)[C@@H]2C` [Compound 2, Arnicolide C], the half-maximal effective concentration (EC50) in assay [1] came out at 12 µM; in assay [2] (EC50 Arrestin, Table 5), 2800 nM.

Take `CC=C(C)C(=O)OC1C2C(CC(C)C3C=CC(=O)C31C)OC(=O)C2C` (centres unmarked) [Compound 3, Microhelenin C]: the EC50 in assay [1] was found to be 11 µM; in assay [2] (EC50 Arrestin, Table 5), 2000 nM.

In the case of `CCC(C)C(=O)O[C@H]1[C@H]2[C@@H](C[C@@H](C)C3C=CC(=O)[C@]31C)OC(=O)[C@@H]2C` (some centres unmarked) [Compound 4, Microhelenin B], the half-maximal effective concentration (EC50) in assay [1] is 4.2 µM; in assay [2] (EC50 Arrestin, Table 5), 2350 nM; in assay [2] (EC50 BRS3, Table 6), 3730 nM; in assay [4], more than 861 µM; in assay [5], more than 861 µM. Besides, the “time of return of cytosolic calcium to basal levels” value in assay [1] (6.8 μg/ml) was found to be 1 min. Further, the “time to maximal level of cytosolic calcium” value in assay [1] (6.8 μg/ml) was 13 s. Further, the “magnitude of released calcium and time to reach the peak of the transient” value (from here on “magnitude of released calcium and time”) in assay [1] is “concentration-dependent and saturable”. In assay [3], the “cytosolic Ca++ release in cells without BRS3” value is listed as “not able to stimulated cytosolic Ca^++ release”.

Consider `CC(C)CC(=O)O[C@H]1[C@H]2[C@@H](C[C@@H](C)[C@@H]3C=CC(=O)[C@]31C)OC(=O)[C@@H]2C` [Compound 5, Arnicolide B], for which the EC50 in assay [1] is 20 µM; in assay [2] (EC50 Arrestin, Table 5) it was 7500 nM.

On to `CCC(C)C(=O)O[C@H]1[C@@H]2[C@H](C)C(=O)O[C@@H]2C[C@@H](C)C2[C@@H](O)CC(=O)[C@]21C` (some centres unmarked) [Compound A, arnifoline], for which the EC50 was 2.6 µM in assay [1] (setting [6]); 2700 nM in assay [2] (EC50 Arrestin, Table 5); 2730 nM in assay [2] (EC50 BRS3, Table 6); more than 1360 µM in assay [4]; more than 1360 µM in assay [5]. Moreover, the “magnitude of released calcium and time” value in assay [1] is “concentration-dependent and saturable”.

With `CCC(C)C(=O)O[C@H]1[C@@H]2[C@H](C)C(=O)O[C@@H]2C[C@@H](C)C2[C@@H](C)CC(=O)[C@]21C` (stereo partly drawn) [Compound B, 11α-13-dihydroarnifolin B], the “time of return of cytosolic calcium to basal levels” value in assay [1] (25 μg/ml) came to 1 min. Besides, the “time to maximal level of cytosolic calcium” value in assay [1] (25 μg/ml) was determined as 13 s. The EC50 was 9.6 µM in assay [1] (setting [6]); 14000 nM in assay [2] (EC50 Arrestin, Table 5); 13700 nM in assay [2] (EC50 BRS3, Table 6); more than 686 µM in assay [4]; more than 823 µM in assay [5]. Also, in assay [1], the “magnitude of released calcium and time” value is “concentration-dependent and saturable”. Further, in assay [3], the “cytosolic Ca++ release in cells without BRS3” value was “not able to stimulated cytosolic Ca^++ release”.
